These results are taken from patent publication US9931327B2, “Derivatives of 1-phenyl-2-pyridinyl alkyl alcohols as phosphodiesterase inhibitors” (Chiesi Farmaceutici S.p.A., priority 2011, dated 2018).

The first assay deals with LPS-induced TNF-α release in peripheral blood mononuclear cells (PBMCs). Description: In vitro determination of PDE4 inhibitory activity in the PBMCs assay (LPS-induced TNF-α release). In kind it is cell-based, human. Particulars: Homo sapiens, PBMC, 18 h, read-out: PDE4 inhibition (IC50, 50% inhibition of LPS-induced TNF-α release). Here is the method: The assay, which is based on the known inhibitory activity exerted by PDE4 inhibitors on the lipopolyshaccarides (LPS)-induced tumour necrosis factor-alpha (TNF-α release in peripheral blood mononuclear cells (PBMCs), was performed according to a method previously described (Hatzelmann A et al., J. Pharmacol. Exp. Ther., 2001; 297:267-279; and Draheim R et al., J. Pharmacol. Exp. Ther., 2004; 308:555-563, which are incorporated herein by reference in their entireties). Cryopreserved human PBMCs, (100 l/well) were incubated in 96-well plates (10^5 cells/well), for 30 minutes, in the presence or absence (50 microl) of the test compounds whose concentrations ranged from 10^−12 M to 10^−6 M or from […] to 10^−7 M. Subsequently, LPS (3 ng/ml) was added.
After 18 hours of incubation at 37° C. in a humidified incubator under an atmosphere of 95% air and 5% CO2, culture medium was collected and TNF-α measured by ELISA. The results of the tested compounds, representatives of the invention, expressed as mean±95% confidence limits of the molar concentration of the test compound producing 50% inhibition of LPS-induced TNF-α release (IC50) are shown in the following Table: […]
As usually defined, the IC50 is the midpoint of a concentration-inhibition curve. With `Nc1ccc(S(=O)(=O)N2CCS[C@@H]2C(=O)O[C@@H](Cc2c(Cl)c[n+]([O-])cc2Cl)c2ccc(OC(F)F)c(OCC3CC3)c2)cc1` [Compound 151, 4-((S)-2-((R)-3-(4-aminophenylsulfonyl)thiazolidine-2-carbonyloxy)-2-(3-(cyclopropylmethoxy)-4-(difluoromethoxy)phenyl)ethyl)-3,5-dichloropyridine 1-oxide], the IC50 was in the range of 0.1 to 1 nM.

Still in this assay, the particulars now being: PBMC; human PBMCs, LPS 3 ng/ml, 18 hours, TNF-α by ELISA; read-out: PDE4 inhibition (IC50, 50% inhibition of LPS-induced TNF-α release).
For the compound `CN(C)C(=O)c1cccc(S(=O)(=O)N2CCS[C@H]2C(=O)O[C@@H](Cc2c(Cl)c[n+]([O-])cc2Cl)c2ccc(OC(F)F)c(OCC3CC3)c2)c1` [Compound 52, 3,5-dichloro-4-((S)-2-(3-(cyclopropylmethoxy)-4-(difluoromethoxy)phenyl)-2-((S)-3-(3-(dimethylcarbamoyl)phenylsulfonyl)thiazolidine-2-carbonyloxy)ethyl)pyridine 1-oxide], the IC50 was < 0.1 nM. Same read-out and setting: in the case of `NCCc1ccc(C(=O)N2CCSC2C(=O)O[C@@H](Cc2c(Cl)c[n+]([O-])cc2Cl)c2ccc(OC(F)F)c(OCC3CC3)c2)cc1` (stereo partly drawn) [Compound 22, 4-((2S)-2-(3-(4-(2-aminoethyl)benzoyl)thiazolidine-2-carbonyloxy)-2-(3-(cyclopropylmethoxy)-4-(difluoromethoxy)phenyl)ethyl)-3,5-dichloropyridine 1-oxide] it was 0.1 to 1 nM; in that of `COc1ccc(S(=O)(=O)N2CCS[C@H]2C(=O)O[C@@H](Cc2c(Cl)c[n+]([O-])cc2Cl)c2ccc(OC(F)F)c(OCC3CC3)c2)cc1C(=O)N(C)C` [Compound 131, 3,5-dichloro-4-((S)-2-(3-(cyclopropylmethoxy)-4-(difluoromethoxy)phenyl)-2-((S)-3-(3-(dimethylcarbamoyl)-4-methoxyphenylsulfonyl)thiazolidine-2-carbonyloxy)ethyl)pyridine 1-oxide], < 0.1 nM; in that of `CN1CCOc2ccc(S(=O)(=O)N3CCC[C@H]3C(=O)O[C@@H](Cc3c(Cl)c[n+]([O-])cc3Cl)c3ccc(OC(F)F)c(OCC4CC4)c3)cc21` [Compound 250, 3,5-dichloro-4-((S)-2-(3-(cyclopropylmethoxy)-4-(difluoromethoxy)phenyl)-2-((S)-1-(4-methyl-3,4-dihydro-2H-benzo[b][1,4]oxazin-6-ylsulfonyl)pyrrolidine-2-carbonyloxy)ethyl)pyridine 1-oxide], < 0.1 nM. For the compound `CN(C)C(=O)c1cccc(S(=O)(=O)N2CCSC2C(=O)O[C@@H](Cc2c(Cl)c[n+]([O-])cc2Cl)c2ccc(OC(F)F)c(OCC3CC3)c2)c1` (stereo partly drawn) [Compound 56, 3,5-dichloro-4-((2S)-2-(3-(cyclopropylmethoxy)-4-(difluoromethoxy)phenyl)-2-(3-(3-(dimethylcarbamoyl)phenylsulfonyl)thiazolidine-2-carbonyloxy)ethyl)pyridine 1-oxide], the IC50 was < 0.1 nM. Same read-out and setting: in the case of `CN(C)S(=O)(=O)c1cccc(S(=O)(=O)N2CCCC2C(=O)O[C@@H](Cc2c(Cl)c[n+]([O-])cc2Cl)c2ccc(OC(F)F)c(OCC3CC3)c2)c1` (stereo in doubt) [Compound 238, 3,5-dichloro-4-((S)-2-(3-(cyclopropylmethoxy)-4-(difluoromethoxy)phenyl)-2-((S)-1-(3-(N,N-dimethylsulfamoyl)phenylsulfonyl)pyrrolidine-2-carbonyloxy)ethyl)pyridine 1-oxide] it was 0.1 to 1 nM; in that of `O=C(O[C@@H](Cc1c(Cl)c[n+]([O-])cc1Cl)c1ccc(OC(F)F)c(OCC2CC2)c1)[C@@H]1SCCN1C(=O)c1ccc(CN2CCOCC2)cc1` [Compound 39, 3,5-dichloro-4-((S)-2-(3-(cyclopropylmethoxy)-4-(difluoromethoxy)phenyl)-2-((S)-3-(4-(morpholinomethyl)benzoyl)thiazolidine-2-carbonyloxy)ethyl)pyridine 1-oxide], 0.1 to 1 nM; in that of `Nc1ccc(S(=O)(=O)N2CSC[C@H]2C(=O)O[C@@H](Cc2c(Cl)c[n+]([O-])cc2Cl)c2ccc(OC(F)F)c(OCC3CC3)c2)cc1` [Compound 138, 4-((S)-2-((R)-3-(4-aminophenylsulfonyl)thiazolidine-4-carbonyloxy)-2-(3-(cyclopropylmethoxy)-4-(difluoromethoxy)phenyl)ethyl)-3,5-dichloropyridine 1-oxide], 0.1 to 1 nM.

For `CNC(=O)c1cc(S(=O)(=O)N2CCS[C@H]2C(=O)O[C@@H](Cc2c(Cl)c[n+]([O-])cc2Cl)c2ccc(OC(F)F)c(OCC3CC3)c2)cn1C` [Compound 241, 3,5-dichloro-4-((S)-2-(3-(cyclopropylmethoxy)-4-(difluoromethoxy)phenyl)-2-((S)-3-(1-methyl-5-(methylcarbamoyl)-1H-pyrrol-3-ylsulfonyl)thiazolidine-2-carbonyloxy)ethyl)pyridine 1-oxide], the IC50 was < 0.1 nM.

For `Cc1cc(S(=O)(=O)N2CCS[C@H]2C(=O)O[C@@H](Cc2c(Cl)c[n+]([O-])cc2Cl)c2ccc(OC(F)F)c(OCC3CC3)c2)c(C)s1` [Compound 203, 3,5-dichloro-4-((S)-2-(3-(cyclopropylmethoxy)-4-(difluoromethoxy)phenyl)-2-((S)-3-(2,5-dimethylthiophen-3-ylsulfonyl)thiazolidine-2-carbonyloxy)ethyl)pyridine 1-oxide], the IC50 fell in the range of 0.1 to 1 nM. Still for that read-out and setting: to `O=C(O[C@@H](Cc1c(Cl)c[n+]([O-])cc1Cl)c1ccc(OC(F)F)c(OCC2CC2)c1)C1SCCN1C(=O)c1cnco1` (stereo partly drawn) [Compound 35, 3,5-dichloro-4-((2S)-2-(3-(cyclopropylmethoxy)-4-(difluoromethoxy)phenyl)-2-(3-(oxazole-5-carbonyl)thiazolidine-2-carbonyloxy)ethyl)pyridine 1-oxide] belongs < 0.1 nM; to `O=C(O[C@@H](Cc1c(Cl)c[n+]([O-])cc1Cl)c1ccc(OC(F)F)c(OCC2CC2)c1)C1SCCN1S(=O)(=O)c1ccc(F)cc1F` (stereo partly drawn) [Compound 67, 3,5-dichloro-4-((2S)-2-(3-(cyclopropylmethoxy)-4-(difluoromethoxy)phenyl)-2-(3-(2,4-difluorophenylsulfonyl)thiazolidine-2-carbonyloxy)ethyl)pyridine 1-oxide], 0.1 to 1 nM; to `COc1cc([C@H](Cc2c(Cl)c[n+]([O-])cc2Cl)OC(=O)[C@@H]2SCCN2S(=O)(=O)c2cccc(C(=O)N(C)C)c2)ccc1OC(F)F` [Compound 299, 3,5-dichloro-4-((S)-2-(4-(difluoromethoxy)-3-methoxyphenyl)-2-((S)-3-(3-(dimethylcarbamoyl)phenylsulfonyl)thiazolidine-2-carbonyloxy)ethyl)pyridine 1-oxide], < 0.1 nM. The same measure, in the same setting: in the case of `COc1ccc(S(=O)(=O)N2CCSC2C(=O)O[C@@H](Cc2c(Cl)c[n+]([O-])cc2Cl)c2ccc(OC(F)F)c(OCC3CC3)c2)cc1OC` (stereo partly drawn) [Compound 73, 3,5-dichloro-4-((2S)-2-(3-(cyclopropylmethoxy)-4-(difluoromethoxy)phenyl)-2-(3-(3,4-dimethoxyphenylsulfonyl)thiazolidine-2-carbonyloxy)ethyl)pyridine 1-oxide] it was < 0.1 nM; in that of `COc1ccc(S(=O)(=O)N2CCC[C@H]2C(=O)O[C@@H](Cc2c(Cl)c[n+]([O-])cc2Cl)c2ccc(OC(F)F)c(OCC3CC3)c2)cc1OC` [Compound 53, 3,5-dichloro-4-((S)-2-(3-(cyclopropylmethoxy)-4-(difluoromethoxy)phenyl)-2-((S)-1-(3,4-dimethoxyphenylsulfonyl)pyrrolidine-2-carbonyloxy)ethyl)pyridine 1-oxide], 0.1 to 1 nM.
